Measured values from the supplement of paper PMC5579334.
± gives the standard deviation of the averaged measurements.

Assays:
YST-1 [1] = experiment: drug sensitivity score (DSS, CellTiter-Glo viability, 72 h) (DSS (dimensionless)); higher = more sensitive; extreme values may be limits of the assay
Method in brief: (§1)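 For this screen, 384-well plates were preprinted with each compound at five concentrations in 10-fold steps and seeded with MPNST cell lines or primary human Schwann cells at 750–1000 cells per well. Incubation lasted 72 h at 37 °C, 5% CO2, and CellTiter-Glo ATP luminescence, scaled between vehicle and positive-control wells and averaged over duplicates where available, served as viability. Logistic fits with four parameters were applied. Relative IC50 (censored at the top concentration) and drug sensitivity score derive from these fits, and percent inhibition is at the top concentration.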

ST8814 [2] = experiment: as above
Method in brief: as §1

STS26T [3] = experiment: as above
Method in brief: as §1

S462 [4] = experiment: as above
Method in brief: as §1

[5] = tested on: HSC1 (primary human Schwann cells); experiment: as above
Method in brief: as §1

HS-PSS [6] = experiment: as above
Method in brief: as §1

S1507-2 [7] = experiment: as above
Method in brief: as §1

HS-Sch-2 [8] = experiment: as above
Method in brief: as §1

[9] = tested on: HSC2 (primary human Schwann cells); experiment: as above
Method in brief: as §1

ST8814 [10] = experiment: drug sensitivity score (DSS, CellTox-Green cytotoxicity, 72 h) (DSS (dimensionless)); higher = more cytotoxic; extreme values may be limits of the assay
Method in brief: (§2)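 MPNST cell lines and primary human Schwann cells were grown for 72 h at 37 °C in 384-well plates containing five 10-fold compound dilutions. CellTox-Green, added before seeding at a final 1:1000 dilution, gave fluorescence from DNA released by disrupted cells, and signals were scaled to vehicle and positive-control wells. Curves were fitted with a four-parameter logistic model. Drug sensitivity score and relative IC50 come from these fits, with IC50 censored at the top concentration.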

STS26T [11] = experiment: as above
Method in brief: as §2

[12] = tested on: HSC1 (primary human Schwann cells); experiment: as above
Method in brief: as §2

HS-PSS [13] = experiment: as above
Method in brief: as §2

S1507-2 [14] = experiment: as above
Method in brief: as §2

[15] = tested on: HSC2 (primary human Schwann cells); experiment: as above
Method in brief: as §2

YST-1 [16] = experiment: % inhibition of CellTiter-Glo viability at highest tested concentration (72 h), relative to DMSO and benzethonium chloride controls; higher = more inhibition
Method in brief: as §1

ST8814 [17] = experiment: as above
Method in brief: as §1

STS26T [18] = experiment: as above
Method in brief: as §1

S462 [19] = experiment: as above
Method in brief: as §1

[20] = tested on: HSC1 (primary human Schwann cells); experiment: as above
Method in brief: as §1

HS-PSS [21] = experiment: as above
Method in brief: as §1

S1507-2 [22] = experiment: as above
Method in brief: as §1

HS-Sch-2 [23] = experiment: as above
Method in brief: as §1

[24] = tested on: HSC2 (primary human Schwann cells); experiment: as above
Method in brief: as §1

Structure (SMILES)	drug sensitivity score (YST-1 [1])	drug sensitivity score (ST8814 [2])	drug sensitivity score (STS26T [3])	drug sensitivity score (S462 [4])	drug sensitivity score [5]	drug sensitivity score (HS-PSS [6])	drug sensitivity score (S1507-2 [7])	drug sensitivity score (HS-Sch-2 [8])	drug sensitivity score [9]	drug sensitivity score (ST8814 [10])	drug sensitivity score (STS26T [11])	drug sensitivity score [12]	drug sensitivity score (HS-PSS [13])	drug sensitivity score (S1507-2 [14])	drug sensitivity score [15]	% inhibition (YST-1 [16]) [%]	% inhibition (ST8814 [17]) [%]	% inhibition (STS26T [18]) [%]	% inhibition (S462 [19]) [%]	% inhibition [20] [%]	% inhibition (HS-PSS [21]) [%]	% inhibition (S1507-2 [22]) [%]	% inhibition (HS-Sch-2 [23]) [%]	% inhibition [24] [%]
CC(C)N(CCCNC(=O)Nc1ccc(C(C)(C)C)cc1)C[C@H]1O[C@@H](n2cc(Br)c3c(N)ncnc32)[C@H](O)[C@@H]1O [SGC0946] (max concentration tested 10000 nM)	1.03	2.58	0	0.582 ± 0.82	0.65	6.51	3.16 ± 1.4	3.88	0.163	3.21	0	0	2.32	0.24 ± 0.046	0	29	52.9	4.04	19.2 ± 8.9	23.1	79.5	42.7 ± 1.2	67.2	16.3
Cc1ccc(NC(=O)c2ccc(CN3CCN(C)CC3)cc2)cc1Nc1nc(-c2cccnc2)cs1 [Masitinib] (max concentration tested 10000 nM)	6.54	4.79	4.23	3.78 ± 0.14	3.32	7.12	7.556 ± 0.038	5.27	3.5	4.31	3.63	2.96	1.06	4.73 ± 0.42	0.804	90.8	87.5	80.8	71.4 ± 5.9	65.1	83.9	96.25 ± 0.36	97.2	54.6
CC[C@@H]1C(=O)N(C)c2cnc(Nc3ccc(C(=O)NC4CCN(C)CC4)cc3OC)nc2N1C1CCCC1 [BI 2536] (max concentration tested 1000 nM)	20.5	22.1	29.6	28.42 ± 0.2	13.3	15	19.5 ± 0.21	24.5	17.4	19.5	32.3	11.3	0.25	15.6 ± 0.4	20.1	54.1	84.1	75.9	101.6 ± 0.24	62.9	61	86.7 ± 3	66.8	79.4
NS(=O)(=O)OC[C@@H]1C[C@@H](n2ccc3c(N[C@H]4CCc5ccccc54)ncnc32)C[C@@H]1O [Pevonedistat] (max concentration tested 10000 nM)	15.2	20	12.7	23.2 ± 1.4	12	23.8	17.3 ± 1	28	14.3	19.3	11.7	4.84	10.7	16.7 ± 2.1	3	67.7	95.6	83.4	96.07 ± 0.96	77.1	97	87.5 ± 1.1	101	84.4
C#Cc1cccc(Nc2ncnc3cc(OCCOC)c(OCCOC)cc23)c1 [Erlotinib] (max concentration tested 10000 nM)	5.25	1.41	2.29	3.86 ± 0.29	5.2	3.63	1.85 ± 2	5.08	5.39	0	0	0	0	0	0	56.7	31.1	33.2	54.5 ± 2.7	73.1	48.6	26.3 ± 10	55.9	74.7
CC(=O)O[C@@]12CO[C@@H]1C[C@H](O)[C@@]1(C)C(=O)[C@H](O)C3=C(C)[C@@H](OC(=O)[C@H](O)[C@@H](NC(=O)OC(C)(C)C)c4ccccc4)C[C@@](O)([C@@H](OC(=O)c4ccccc4)[C@H]21)C3(C)C [Docetaxel] (max concentration tested 1000 nM)	29.1	24.8	35.5	36.7 ± 1.5	21.9	15.2	20.5 ± 0.58	30.8	22.3	27.1	36	17.3	0.9	22 ± 1.6	24.4	75.9	89.2	99.9	96.9 ± 1.2	71.7	52.7	83.195 ± 0.0062	96.2	74.4
CC1(C)NC(=O)N(c2ccc([N+](=O)[O-])c(C(F)(F)F)c2)C1=O [Nilutamide] (max concentration tested 10000 nM)	0	0	0	0	0.162	0	0	0.51	0	0	0	0	0	0	0	-2.31	-1.67	7.4	6.29 ± 2.4	9.41	8.31	7.48 ± 3.5	18.2	9.17
CN(Cc1cnc2nc(N)nc(N)c2n1)c1ccc(C(=O)N[C@@H](CCC(=O)O)C(=O)O)cc1 [Methotrexate] (max concentration tested 5000 nM)	6.23	6.3	25.9	19.9 ± 4.6	0	0	1.24 ± 1.8	13.7	0.0797	0.851	4.94	0	0.89	0	0	24.6	38.2	62.5	70.2 ± 8.4	3.1	-5.89	-2.04 ± 33	58.8	13.5
CO[C@H]1/C=C\C=C(/C)C(=O)NC2=CC(=O)C(NCCN(C)C)=C(C[C@@H](C)C[C@H](OC)[C@H](O)[C@@H](C)/C=C(\C)[C@@H]1OC(N)=O)C2=O [Alvespimycin] (max concentration tested 1000 nM)	15.4	14.6	12.5	15.4 ± 0.78	10	13.8	12.3 ± 0.18	15.8	9.75	6.78	7.8	8.04	3.83	7.17 ± 1.2	8.36	78.2	98.8	91.8	99.51 ± 0.13	98.1	85.3	95.7 ± 2.9	100	96.2
COc1cc(F)c(F)c(Nc2ccc(I)cc2F)c1NS(=O)(=O)C1(C[C@H](O)CO)CC1 [Refametinib] (max concentration tested 10000 nM)	0.24	14.8	8.43	14.9 ± 1.8	8.11	5.39	13.8 ± 1.3	6.81	10.5	8.62	1.17	0	0.98	11.1 ± 3.6	0.276	17.5	99.1	53	94.83 ± 0.55	69.2	63.2	86.7 ± 4.6	75.5	69
O=C1c2c(O)ccc(O)c2C(=O)c2c(NCCNCCO)ccc(NCCNCCO)c21 [Mitoxantrone] (max concentration tested 1000 nM)	10.7	2.63	2.45	5.57 ± 0.84	2.89	1.94	2.8 ± 1.2	4.38	5.2	1.65	1.34	0	0	0	0	77	46.7	53.5	72.66 ± 0.27	37.8	28.8	43.44 ± 0.12	42.7	43
C[C@]12C=CC(=O)C=C1CC[C@@H]1[C@@H]2C(=O)C[C@@]2(C)[C@H]1CC[C@]2(O)C(=O)CO [Prednisone] (max concentration tested 10000 nM)	0	0	0	0	0	0	0	0.07	0	0	0	0	0	0	0	-5.67	-2.07	4.83	-0.361 ± 2	-0.144	3.03	0.647 ± 14	12.9	2.63
Cn1c(=O)n(-c2ccc(C(C)(C)C#N)cc2)c2c3cc(-c4cnc5ccccc5c4)ccc3ncc21 [Dactolisib] (max concentration tested 1000 nM)	14.7	14.3	17.2	13.2 ± 0.72	19.4	14.4	15.8 ± 2.9	13.9	19.4	0	0	0	0.12	0	0	63.8	64	67.7	61 ± 0.72	75	69.8	66 ± 2.8	61.8	78.3
